# Columns and labels:
# [1] = biological target: T1, human prostaglandin E2 (subtype EP2) receptor (Homo sapiens, UniProt P43116); assay: cAMP agonism assay (HTRF cAMP detection); type: cell-based; details: cAMP agonism test; read-out: Agonism [ED50, μm]
# T1 construct: host or cells: cells in a cell culture plate
# Description: (§1) The binding of PGE2 to the EP2 subtype of the human PGE2 receptor induces activation of membrane-associated adenylate cyclases and leads to the formation of cAMP. In the presence of the phosphodiesterase inhibitor IBMX, cAMP which has accumulated due to this stimulation and been released by cell lysis is employed in a competitive detection method. In this assay, the cAMP in the lysate competes with cAMP-XL665 for binding of an Eu cryptate-labelled anti-cAMP antibody.
# (§2) The two signals are measured in a suitable measuring instrument with a time lag, i.e. after the background fluorescence has declined.
# 1.2.2 Agonism Assay (Data for Each Well of a 384-Well Plate):
# (§3) The substance solutions (0.75 μl) introduced into an assay plate and 30% DMSO are dissolved in 16 μl of a KRSB+IBMX stimulation solution (1×Krebs-Ringer Bicarbonate Buffer; Sigma-Aldrich # K-4002; including 750 μM 3-isobutyl-1-methylxanthine Sigma-Aldrich # I-7018), and then 15 μl thereof are transferred into a media-free cell culture plate which has been washed with KRSB shortly beforehand.
# (§4) After incubation at room temperature (RT; volume: ˜15 μl) for 60 minutes, the reaction is then stopped by adding 5 μl of lysis buffer and incubated at RT for a further 20 min (volume: ˜20 μl). The cell lysate is then transferred into a measuring plate and measured in accordance with the manufacturer's information (cyclic AMP kit Cisbio International # 62AMPPEC).
# cumulus-oocyte complexes = assay: Cumulus expansion assay in vitro; type: cell-based, mice; details: concentration of 100-200 μm; test substances compete with PGE2
# Description: 2.2 Cumulus Expansion Assay in Vitro
# Folliculogenesis is induced in immature female mice (strain: CD1 (ICR) from Charles River) at an age of 14-18 days by a single dose (intraperitoneal) of 10 I.U. of PMSG (Pregnant Mare Serum Gonadotropin; Sigma G-4877, Lot 68H0909). 47-50 hours after the injection, the ovaries are removed and the cumulus-oocyte complexes are removed. The cumulus complex is not yet expanded at this stage.
# The cumulus-oocyte complexes are then incubated with prostaglandin E2 (PGE2) (1 μM), vehicle control (ethanol) or test substances for 20-24 hours. Medium: alpha-MEM medium with 0.1 mM IBMX, pyruvates (0.23 mM) glutamines (2 mM), pen/strep 100 IU/ml pen. and 100 μg/ml strep. and HSA (8 mg/ml). Cumulus expansion is then established through the division into four stages (according to Vanderhyden et al. Dev Biol. 1990 August; 140 (2):307-317).
# [2] = biological target: T1, human prostaglandin E2 (subtype EP2) receptor; assay: cAMP antagonism assay (HTRF cAMP detection, in presence of PGE2); type: cell-based; details: cAMP antagonism test
# Text: 1. Detection of the Antagonism of the Human Prostaglandin E2 (Subtype EP2) Receptor Signal
# 1.1 Principle of Detection
# as §1, §2
# 1.2.1 Antagonism Assay (Data for Each Well of a 384-Well Plate):
# as §3
# as §4, with “preincubation” for “incubation”, “(RT) for 30 minutes, 5 μl of a 4×PGE2 solution (11 nM) are added, and incubation is carried out in the presence of the agonist at RT for a further 60 min (volume: ˜20” for “(RT; volume: ˜15”, “before” for “for 60 minutes,”, “˜25” for “˜20”
# T1 sequence (P43116 whole entry): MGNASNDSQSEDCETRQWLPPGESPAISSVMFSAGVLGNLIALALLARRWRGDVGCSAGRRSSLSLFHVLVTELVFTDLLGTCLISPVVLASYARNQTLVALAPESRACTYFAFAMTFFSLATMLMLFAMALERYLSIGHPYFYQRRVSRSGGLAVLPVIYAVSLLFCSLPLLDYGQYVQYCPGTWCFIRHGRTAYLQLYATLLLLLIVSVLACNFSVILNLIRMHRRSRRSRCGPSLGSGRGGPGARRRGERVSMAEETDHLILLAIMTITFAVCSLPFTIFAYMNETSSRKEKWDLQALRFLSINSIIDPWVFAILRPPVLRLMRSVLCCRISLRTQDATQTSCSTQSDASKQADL
SMILES,EC50 [1],suppression of cumulus expansion (cumulus-oocyte complexes),IC50 [2]
"O=C(O)CC1c2ccccc2-c2ccc(OCCCCOc3cccc(O)c3)cc21 (racemic) [VI/3, (R/S) {2-[4-(3-Hydroxyphenoxy)butoxy]-9H-fluoren-9-yl}acetic acid]",> 19 µM,~50%,6.4 µM
"CC(=O)Nc1cccc(OCCCCOc2ccc3c(c2)C(CC(=O)O)c2ccccc2-3)c1 (racemic) [VI/4, (R/S) {2-[4-(3-Acetylaminophenoxy)butoxy]-9H-fluoren-9-yl}acetic acid]",6.3 µM,,> 19 µM
"CC(C)Oc1ccc2c(=O)c3cc(C(=O)O)ccc3oc2c1 [AH6809, reference compound]",> 19 µM,about 20%,> 19 µM
"CCOC(=O)Cn1c2ccccc2c2ccc(OCCCCOc3cccc(C(=O)OC)c3)cc21 [XII/5, Methyl 3-[4-(9-ethoxycarbonylmethyl-9H-carbazol-2-yloxy)butoxy]benzoate]",6.3 µM,,> 19 µM
"CC(=O)c1cccc(OCCCCOc2ccc3c4ccccc4n(CC(=O)O)c3c2)c1 [XIII/12, {2-[4-(3-acetylphenoxy)butoxy]carbazol-9-yl}acetic acid]",> 19 µM,,6.3 µM
"O=C(O)Cn1c2ccccc2c2ccc(OCCCCOc3ccc(-n4cccc4)cc3)cc21 [XIII/22, {2-[4-(4-pyrrol-1-ylphenoxy)butoxy]carbazol-9-yl}acetic acid]",> 19 µM,,1.2 µM
"O=C(O)CCn1c2ccccc2c2ccc(OCCCCOc3ccc4c(c3)CCC(=O)N4)cc21 [XIII/67, 3-{2-[4-(2-oxo-1,2,3,4-tetrahydroquinolin-6-yloxy)butoxy]carbazol-9-yl}propionic acid]",> 19 µM,,3.2 µM
"O=C(O)Cn1c2ccccc2c2ccc(OCCCOc3ccccc3)cc21 [XIII/85, [2-(3-phenoxypropoxy)carbazol-9-yl]acetic acid]",> 19 µM,,6.7 µM
"O=C(O)Cn1c2ccccc2c2ccc(OCCCCCOc3ccccc3)cc21 [XIII/140, [2-(5-phenoxypentyloxy)carbazol-9-yl]acetic acid]",> 19 µM,,6.7 µM
